Key:
[1] = In vitro anti-inflammatory activity at 100 mg/ml incubated for 15 mins followed by heating for 10 mins and cooling by albumin denaturation assay relative to control
Rattus norvegicus [2] = assay: Anti-inflammatory activity in carrageenan-induced Swiss albino rat assessed as reduction in paw edema by measuring swelling thickness at 10 ml/kg, po pretreated for 1 hr followed by carrageenan addition and measured up to 6 hrs at 1 hr interval relative to control; format: functional; design: scale not given: the % may be the effect or the level left
[3] = molecular target: T1, Prostaglandin G/H synthase 2 (Homo sapiens) (UniProt P35354); conditions: Blood, at 10 µM
T1 sequence (whole entry): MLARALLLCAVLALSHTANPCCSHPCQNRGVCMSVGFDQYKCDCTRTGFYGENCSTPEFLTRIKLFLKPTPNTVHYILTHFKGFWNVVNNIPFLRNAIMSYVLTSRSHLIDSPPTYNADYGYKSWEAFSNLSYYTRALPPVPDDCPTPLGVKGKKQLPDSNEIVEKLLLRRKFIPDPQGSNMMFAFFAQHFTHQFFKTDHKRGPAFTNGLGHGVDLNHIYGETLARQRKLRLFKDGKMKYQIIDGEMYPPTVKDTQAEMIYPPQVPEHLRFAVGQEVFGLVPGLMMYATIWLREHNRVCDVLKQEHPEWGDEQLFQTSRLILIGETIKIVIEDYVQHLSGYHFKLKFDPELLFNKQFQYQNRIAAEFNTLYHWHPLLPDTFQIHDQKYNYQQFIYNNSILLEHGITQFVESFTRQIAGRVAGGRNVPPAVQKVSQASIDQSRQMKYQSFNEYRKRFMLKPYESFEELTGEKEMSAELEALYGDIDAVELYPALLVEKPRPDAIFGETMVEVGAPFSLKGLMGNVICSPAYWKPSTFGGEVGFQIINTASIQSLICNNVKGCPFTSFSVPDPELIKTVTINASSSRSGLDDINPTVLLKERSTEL
Description: Inhibition of COX2 in LPS-induced human whole blood at 10 uM after 24 hrs by EIA relative to control

Mus musculus = assay: Anti-inflammatory activity in formalin-induced Swiss albino mouse assessed as reduction in paw edema volume at 10 mg/kg, ip pretreated for 30 mins followed by formalin addition relative to control; format: functional; design: scale not given: the % may be the effect or the level left
Rattus norvegicus [4] = assay: Anti-inflammatory activity in carrageenan-induced albino rat assessed as reduction in paw edema volume at 20 umol/kg, po measured at 1 hr intervals up to 4 hrs relative to control; format: functional; design: scale not given: the % may be the effect or the level left
[5] = molecular target: T2, Prostaglandin G/H synthase 2 (Homo sapiens, UniProt P35354); assay: Inhibition of COX2 (unknown origin) using arachidonic acid as substrate preincubated for 20 mins followed by substrate addition measured at 1 sec interval up to 60 secs by chemiluminescence assay
T2 sequence (P35354 whole entry): T1 sequence (whole entry)

[6] = Selectivity ratio of IC50 for ovine COX1 to IC50 for recombinant human COX2
[7] = molecular target: T2, Prostaglandin G/H synthase 2; assay: Inhibition of recombinant human COX2 assessed as decrease in PGE2 release after 10 mins by ELISA

O=c1nc(-c2ccccc2)c(-c2ccccc2)nn1Cc1nnc(Nc2ccccc2)s1
Activity [1]: 71.9 to 79.2%

Cc1ccc(Nc2nnc(Cn3nc(-c4ccccc4)c(-c4ccccc4)nc3=O)o2)cc1
Activity [1]: 71.9 to 79.2%
Activity (Rattus norvegicus [2]): 57.9 - 61.56%

COc1ccc(-c2nnc(N/N=C/c3ccc4c(c3)OCO4)nc2-c2ccc(OC)cc2)cc1
inhibition [3]: 78%

Cc1sc2nnn(-c3ccc(F)cc3)c(=O)c2c1C
Activity (Mus musculus): 34.12%

O=c1nc(-c2ccccc2)c(-c2ccccc2)nn1Cc1nnc(Nc2ccc([N+](=O)[O-])cc2)s1
Activity [1]: 71.9 to 79.2%

Cc1ccc(Nc2nc(-c3ccccc3)c3c(n2)sc2c(Nc4ccc(S(=O)(=O)NC(=N)N)cc4)nnnc23)cc1
Activity (Rattus norvegicus [4]): 78.57%

O=c1nc(-c2ccccc2)c(-c2ccccc2)nn1Cc1nnc(Nc2ccc([N+](=O)[O-])cc2)o1
Activity [1]: 71.9 to 79.2%
Activity (Rattus norvegicus [2]): 57.9 - 61.56%

O=c1nc(-c2ccccc2)c(-c2ccccc2)nn1Cc1nnc(S)n1-c1ccc(Cl)cc1
Activity [1]: 71.9 to 79.2%

O=c1nc(-c2ccccc2)c(-c2ccccc2)nn1Cc1nnc(Nc2ccc(Cl)cc2)o1
Activity [1]: 71.9 to 79.2%
Activity (Rattus norvegicus [2]): 57.9 - 61.56%

O=c1nc(-c2ccccc2)c(-c2ccccc2)nn1Cc1nnc(Nc2ccccc2)o1
Activity [1]: 71.9 to 79.2%
Activity (Rattus norvegicus [2]): 57.9 - 61.56%

Cc1sc2nnn(-c3ccccc3Cl)c(=O)c2c1C
Activity (Mus musculus): 36.47%

O=c1nc(-c2ccccc2)c(-c2ccccc2)nn1Cc1nnc(S)n1-c1ccc([N+](=O)[O-])cc1
Activity [1]: 71.9 to 79.2%

Cc1sc2nnn(-c3ccc(F)c(Cl)c3)c(=O)c2c1C
Activity (Mus musculus): 36.35%

CCOC(=O)c1cnn(-c2ccccn2)c1-n1nnc2ccccc2c1=O
IC50 [5]: 20 µM

CCOC(=O)CSc1nnc(-c2ccc(S(C)(=O)=O)cc2)c(-c2ccc(OC)cc2)n1
Ratio IC50 [6]: 8.79
IC50 [7]: 10.1 µM

Cc1ccc(Nc2nc(-c3ccccc3)c3c(n2)sc2c(Cl)nnnc23)cc1
Activity (Rattus norvegicus [4]): 82.85%

COc1ccc(Nc2nnc(Cn3nc(-c4ccccc4)c(-c4ccccc4)nc3=O)s2)cc1
Activity [1]: 71.9 to 79.2%

CCOC(=O)CSc1nnc(-c2ccc(S(C)(=O)=O)cc2)c(-c2ccc(C)cc2)n1
Ratio IC50 [6]: 8.79
IC50 [7]: 10.1 µM

Cc1ccc(-n2c(S)nnc2Cn2nc(-c3ccccc3)c(-c3ccccc3)nc2=O)cc1
Activity [1]: 71.9 to 79.2%

CCOC(=O)CSc1nnc(-c2ccc(S(C)(=O)=O)cc2)c(-c2ccc(F)cc2)n1
Ratio IC50 [6]: 8.79
IC50 [7]: 10.1 µM

Cc1ccc(Nc2nnc(Cn3nc(-c4ccccc4)c(-c4ccccc4)nc3=O)s2)cc1
Activity [1]: 71.9 to 79.2%

CCOC(=O)CSc1nnc(-c2ccc(S(C)(=O)=O)cc2)c(-c2ccc(Cl)cc2)n1
Ratio IC50 [6]: 8.79
IC50 [7]: 10.1 µM

O=c1nc(-c2ccccc2)c(-c2ccccc2)nn1Cc1nnc(Nc2ccc(Cl)cc2)s1
Activity [1]: 71.9 to 79.2%

COc1ccc(-c2nnc(N/N=C/c3cccc(OC)c3OC)nc2-c2ccc(OC)cc2)cc1
inhibition [3]: 78%

Cc1sc2nnn(-c3ccccc3)c(=O)c2c1C
Activity (Mus musculus): 70.82%

O=c1nc(-c2ccccc2)c(-c2ccccc2)nn1Cc1nnc(S)n1-c1ccccc1
Activity [1]: 71.9 to 79.2%

COc1ccc(-n2c(S)nnc2Cn2nc(-c3ccccc3)c(-c3ccccc3)nc2=O)cc1
Activity [1]: 71.9 to 79.2%

CCOC(=O)CSc1nnc(-c2ccc(S(C)(=O)=O)cc2)c(-c2ccccc2)n1
Ratio IC50 [6]: 8.79
IC50 [7]: 10.1 µM

O=C([O-])Cc1ccccc1Nc1c(Cl)cccc1Cl.[Na+] [DICLOFENAC SODIUM]
Activity (Mus musculus): 78.82%

COc1ccc(Nc2nnc(Cn3nc(-c4ccccc4)c(-c4ccccc4)nc3=O)o2)cc1
Activity [1]: 71.9 to 79.2%
Activity (Rattus norvegicus [2]): 57.9 - 61.56%

COc1ccc2c(c1)c(CC(=O)O)c(C)n2C(=O)c1ccc(Cl)cc1 [INDOMETHACIN]
Activity (Rattus norvegicus [4]): 80.96%
Activity [1]: 82.7%
Activity (Rattus norvegicus [2]): 63.56%

Cc1ccc(-c2cc(C(F)(F)F)nn2-c2ccc(S(N)(=O)=O)cc2)cc1 [CELECOXIB]
Activity [1]: 80.3%
Activity (Rattus norvegicus [2]): 62.26%

Reference: ChEMBL document CHEMBL4325906, “Anti-inflammatory activity of triazine derivatives: A systematic review” (Eur J Med Chem, 2019)
